Measurements taken from patent US20240116986A1, “FUSION PEPTIDES CONTAINING DIMERIC ALPHA-HELICES, PEPTIDE-MOLECULARCONJUGATES CONTAINING THE SAME AND NUCLEIC ACID DELIVERY COMPOSITIONSCONTAINING THE SAME” (Artprobio Co., Ltd., priority 2022, published 2024).
Like-named read-outs stand apart in the source and are kept apart here.

How the values were obtained:
ssDNA PolyT40 = experiment: EMSA with ssDNA PolyT40; assay type: binding
ssDNA PolyT200 = experiment: EMSA with ssDNA PolyT200; assay type: binding
Procedure: The peptide-molecule conjugates of Examples 16, 17 and 18 (Glc2-AA-U2, Glc2-AA-U4, Glc2-AA-U6) were dispersed in distilled water. […] After preparing the mixtures of the peptide-molecule conjugates of Examples 16, 17 and 18 (Glc2-AA-U2, Glc2-AA-U4, Glc2-AA-U6) and the ssDNA PolyT200 (5 μL) at the nucleobase ratios described above, they were analyzed by EMSA.
The aqueous solution of the peptide-molecule conjugate of Example 19 (Glc2-AA-U8) was sonicated for 5 minutes or heated at 90° C. for 5 minutes, respectively. The heated peptide-molecule conjugate was indicated by ‘heat’.
The mixtures prepared by mixing the peptide-molecule conjugate of Example 19 (Glc2-AA-U8) aqueous solution (sonicated or heated) and ssDNA PolyT200 (5 μL) at nucleobase ratios of 20, 30 or 40 were analyzed by EMSA.

EGFP mRNA = experiment: EMSA of nanostructure formation with EGFP mRNA; assay type: binding
Procedure: When a nanostructure was formed through self-assembly by reacting a peptide-molecule conjugate (SAB) with a nucleic acid material (dsDNA or mRNA), agarose gel EMSA was conducted to measure their interactions, binding ratio, stability, etc.
First, the nucleic acid material of a fixed concentration (100 fmol mRNA) was reacted with the peptide-molecule conjugate (SAB) of various concentrations. Immediately before mixing with the nucleic acid material, the peptide-molecule conjugate (SAB) was sonicated for 5 minutes to prevent self-aggregation. The sonicated peptide-molecule conjugate (SAB, 5 μL) was added to the nucleic acid material ([…]) and a nanostructure was prepared by adding distilled water. The sample was prepared by snap cooling. Specifically, after heating at 70° C. for 10 minutes and snap-cooling on ice, the prepared sample was stored at room temperature. The stored sample was mixed with 2 μL of 60% glycerol. Electrophoresis was performed at 100 V for 60 minutes on 0.8% agarose gel using 1×TBE. The band was observed after staining with SYBR™ Gold nucleic acid gel stain (Invitrogen, Waltham, USA).
After sonicating the peptide-molecule conjugate (SAB-gn, n=1 to 6) aqueous solution for 5 minutes, it was immediately mixed with an EGFP mRNA (200 μL) solution. […] An […] nanostructure was prepared as follows by mixing the peptide-molecule conjugate (SAB-gn, n=1 to 6) with the EGFP mRNA. […] The EGFP mRNA and the peptide-molecule conjugate (SAB-gn, n=1 to 6) were mixed at a charge ratio (+/−) of 0, 0.008, 0.016, 0.031, 0.063, 0.125, 0.25, 0.5, 1, 2, 4, 8, 16, 32 or 50.
After incubating the mixture solution overnight and centrifuging at 16,100 g for 30 minutes, the mixture was resuspended in deionized water. After washing twice, the resulting nanostructure was analyzed by EMSA.
After incubating the mixture solution overnight and centrifuging at 16,100 g for 30 minutes, the mixture was resuspended in deionized water.
After heating the mixed solution for 10 minutes at 70° C., it was immediately snap-cooled on ice. RiboRuler Low Range RNA Ladder and RiboRuler High Range RNA Ladder (Thermo Scientific, Waltham, USA) were used on the two lanes on the left side of agarose gel in order to identify the relative locations of the EGFP mRNA bands. The bands of the RiboRuler Low Range RNA Ladder correspond to 1000, 800, 600, 400, 300, 200 and 100 bases, from top to bottom, and the bands of the RiboRuler High Range RNA Ladder correspond to 6000, 4000, 3000, 2000, 1500, 1000, 500 and 200 bases, from top to bottom. Then, the mixtures with charge ratios (+/−) of 0, 0.031, 0.063, 0.125, 0.25, 0.5, 1, 2, 4, 8 and 16 were loaded in sequence.
After heating the mixed solution for 10 minutes at 70° C., it was immediately snap-cooled on ice. RiboRuler High Range RNA Ladder (Thermo Scientific, Waltham, USA) was used on the left side of agarose gel in order to identify the relative locations of the EGFP mRNA bands. The bands of the RiboRuler High Range RNA Ladder correspond to 6000, 4000, 3000, 2000, 1500, 1000, 500 and 200 bases, from top to bottom. Then, the samples were loaded with charge ratios (+/−) of 00, 0.063, 0.125, 0.25, 0.5, 1, 2, 4, 8, 16 and 32 in sequence.

[1] = different nucleobase ratios (20-100)
[2] = 20 nM EGFP mRNA, 70° C. 10 minutes, snap-cooled

Procedure for ssDNA PolyT100: The concentration of the ssDNA was fixed and the concentration of the peptide-molecule conjugate aqueous solution was varied based on the nucleobase ratio.
After incubating the mixture of the peptide-molecule conjugate and ssDNA overnight, it was analyzed by EMSA.

Ac-(PEG8)-AELAALEAELAALE(Ahx)2-E (adenine)E (adenine)-(Ahx)2-KLAALKAKLAALKAG-(PEG8) [PEG82-AA-U0]
electrophoretic mobility (EMSA) (ssDNA PolyT40; nucleobase ratio 1280:1, compared with Example 12): delayed relatively more

Ac-(PEG8)-AELAALEAELAALE-(Ahx)2-E (adenine)-(Ahx)2-KLAALKAKLAALKAG-(PEG8) [PEG82-A-U0]
electrophoretic mobility (EMSA) (ssDNA PolyT40; nucleobase ratio 640): delayed slightly

Ac-R-GS-UELUALEUELAULE-(Ahx)2-E (adenine)E (adenine)-(Ahx)2-KLUALKUKLAULKUG-K (glucose) [R-AA-Glc-U8]
nanostructure formation (EMSA) (ssDNA PolyT200; nucleobase ratio 60): successfully form

Ac-R-GS-UELUALEUELAULE-(Ahx)2-E (thymine)E (thymine)-(Ahx)2-KLUALKUKLAULKUG-K (glucose) [R-TT-Glc-U8]
nanostructure formation (EMSA) (ssDNA PolyT200; nucleobase ratio 60): successfully form

Ac-R-GS-UELUALEUELAULE-(Ahx)2-E (thymine)E (thymine)-(Ahx)2-KLUALKUKLAULKUG-K(PEG8)2 [R-TT-PEG82-U8]
nanostructure formation (EMSA) (ssDNA PolyT200; [1]): successfully form

Ac-R-GS-UELUALEUELAULE-(Ahx)2-E (thymine)E (thymine)-(Ahx)2-KLUALKUKLAULKUG-K(PEG8) [R-AA-PEG8-U8]
nanostructure formation (EMSA) (ssDNA PolyT200; [1]): successfully form

Ac-S-GS-UELUALEUELAULE-(Ahx)2-E (thymine)E (thymine)-(Ahx)2-KLUALKUKLAULKUG-K(PEG8) [S-TT-PEG8-U8]
nanostructure formation (EMSA) (ssDNA PolyT200; [1]): successfully form

Glucose-(PEG8)-AELAALEAELAALE-(Ahx)2-K-(Ahx)2-KLAALKAKLAALKAG-(PEG8)-K(^Nglucose)-NH2 [SAB-g2]
+/− (optimum charge ratio of EGFP mRNA and conjugate showing completely delayed electrophoretic mobility) (EGFP mRNA): >30

Glucose-(PEG8)-AELAALEAELAALE-(Ahx)2-K-(Ahx)2-KLAALKAKLAALKAG-(PEG8)-NH2 [SAB-g1]
+/− (optimum charge ratio of EGFP mRNA and conjugate showing completely delayed electrophoretic mobility) (EGFP mRNA): 20

Glucose-GS-AELAALEAELAALE-(Ahx)2-E (adenine)-E (adenine)-(Ahx)2-KLAALKAKLAALKAG-GS [Glc1-AA-U0]
electrophoretic mobility (EMSA) (ssDNA PolyT100; nucleobase ratio 40:1, compared with Example 15): delayed relatively more
electrophoretic mobility (EMSA) (ssDNA PolyT100; nucleobase ratio 80:1): delayed completely

Glucose-GS-AELAALEAELAALE-(Ahx)2-E (thymine)-E (thymine)-(Ahx)2-KLAALKAKLAALKAG-GS [Glc1-TT-U0]
electrophoretic mobility (EMSA) (ssDNA PolyT100; nucleobase ratio 80:1): no electrophoretic mobility was observed

Glucose-GS-AELAALEAELAALE-(Ahx)2-K-(Ahx)2-KLAALKAKLAALKAG-K(^Nglucose)-NH2 [SAB-g3]
+/− (optimum charge ratio of EGFP mRNA and conjugate showing completely delayed electrophoretic mobility) (EGFP mRNA): 0.25
Hill coefficient (EGFP mRNA): 4.6
half-saturation constant KSAB-g3 (EGFP mRNA): 0.152

Glucose-GS-AELAALEUELAALE-(Ahx)2-E (adenine)E (adenine)-(Ahx)2-KLAALKUKLAALKAG-K (glucose) [Glc2-AA-U2]
nanostructure formation (EMSA) (ssDNA PolyT200; [1]): formed successfully

Glucose-GS-AELAALEUELAALE-(Ahx)2-K-(Ahx)2-KLAALKUKLAALKAG-K(^Nglucose)-NH2 [SAB-g4]
+/− (optimum charge ratio of EGFP mRNA and conjugate showing completely delayed electrophoretic mobility) (EGFP mRNA): 5

Glucose-GS-AELUALEAELAULE-(Ahx)2-E (adenine)E (adenine)-(Ahx)2-KLUALKAKLAULKAG-K (glucose) [Glc2-AA-U4]
nanostructure formation (EMSA) (ssDNA PolyT200; [1]): formed successfully

Glucose-GS-AELUALEAELAULE-(Ahx)2-K-(Ahx)2-KLUALKAKLAULKAG-K(^Nglucose)-NH2 [SAB-g5]
+/− (optimum charge ratio of EGFP mRNA and conjugate showing completely delayed electrophoretic mobility) (EGFP mRNA): 10

Glucose-GS-AELUALEUELAULE-(Ahx)2-E (adenine)E (adenine)-(Ahx)2-KLUALKUKLAULKAG-K (glucose) [Glc2-AA-U6]
nanostructure formation (EMSA) (ssDNA PolyT200; [1]): formed successfully

Glucose-GS-AELUALEUELAULE-(Ahx)2-K-(Ahx)2-KLUALKUKLAULKAG-K(^Nglucose)-NH2 [SAB-g6]
+/− (optimum charge ratio of EGFP mRNA and conjugate showing completely delayed electrophoretic mobility) (EGFP mRNA): >4

Glucose-GS-UELUALEUELAULE-(Ahx)2-E (adenine)E (adenine)-(Ahx)2-KLUALKUKLAULKUG-K (glucose) [Glc2-AA-U8]
nanostructure formation with EGFP mRNA (EMSA) (EGFP mRNA; four conjugates used together (AA 6%, CC 21%, GG 26%, TT 47%), nucleobase ratio 1:1-1:15): successfully forms the nanostructure
nanostructure formation (EMSA) after sonication or heating of conjugate (ssDNA PolyT200; nucleobase ratios 20, 30 or 40, sonicated 5 minutes or heated at 90° C. 5 minutes): successfully binding to ssDNA PolyT200

Glucose-GS-UELUALEUELAULE-(Ahx)2-E (cytosine)E (cytosine)-(Ahx)2-KLUALKUKLAULKUG-K (glucose) [Glc2-CC-U8]
nanostructure formation with EGFP mRNA (EMSA) (EGFP mRNA): successfully forms the nanostructure

Glucose-GS-UELUALEUELAULE-(Ahx)2-E (guanine)E (guanine)-(Ahx)2-KLUALKUKLAULKUG-K (glucose) [Glc2-GG-U8]
nanostructure formation with EGFP mRNA (EMSA) (EGFP mRNA): successfully forms the nanostructure

Glucose-GS-UELUALEUELAULE-(Ahx)2-E (thymine)E (thymine)-(Ahx)2-KLUALKUKLAULKUG-K (glucose) [Glc2-TT-U8]
nanostructure formation with EGFP mRNA (EMSA) (EGFP mRNA): successfully forms the nanostructure

Glucose-SGSG-C-GG-AUAUAUAUAUA-GG-R-GG-AUAUAUAUAUA-GG-C (cyclic; disulfide) [SAB #31]
EMSA bands of EGFP mRNA (EGFP mRNA): bands of the EGFP mRNA weaken gradually with the increase of charge ratio

Glucose-SGSG-C-GG-AUAUAUAUAUA-GG-R-GG-AUAUAUAUAUA-GG-C (linear) [#30]
charge ratio (+/−) at which a complete nanostructure was formed (EGFP mRNA): ≥ 8

Glycolic acid-SGSG-C-GG-AUAUAUAUAUA-GG-R-GG-AUAUAUAUAUA-GG-C (cyclic; disulfide) [cyc-R(AU)A5-Ga]
charge ratio (+/−) at which a complete nanostructure was formed (EGFP mRNA; [2]): 16

Glycolic acid-SGSG-C-GG-AUAUAUAUAUA-GG-R-GG-AUAUAUAUAUA-GG-C (linear) [lin-R(AU)A5-Ga]
charge ratio (+/−) at which a complete nanostructure was formed (EGFP mRNA; [2]): ≥ 1.0
